Experimental data reported in ChEMBL document CHEMBL3046156, “Neoclerodane diterpenoids from Teucrium polium subsp. polium and their antifeedant activity” (2003).

Columns and labels:
Spodoptera littoralis [1] = test: Antifeedant activity against Spodoptera littoralis assessed as antifeedant index at 100 ppm by binary choice bioassay; type: functional
Spodoptera littoralis [2] = test: Antifeedant activity against Spodoptera littoralis by binary choice bioassay; type: functional

| Structure (SMILES) | AFI (Spodoptera littoralis [1]) [%] | FI50 (Spodoptera littoralis [2]) [ppm] |
| --- | --- | --- |
| CC(=O)OC[C@@]12C(=O)[C@H]3O[C@H](O)[C@](C[C@H](OC(C)=O)c4ccoc4)([C@@H]3C)[C@H]1CCC[C@]21CO1 [AUROPOLIN] | 17.8 | – |
| CC(=O)OC[C@@]12C(=O)[C@H]3O[C@H](OC(C)=O)[C@](C[C@H](OC(C)=O)c4ccoc4)([C@@H]3C)[C@H]1CCC[C@]21CO1 [ACETYL-AUROPOLIN] | 57.8 | 90 |
| CC(=O)OC[C@@]12C(=O)[C@@H](OC(C)=O)[C@@H](C)[C@]3(C[C@@H](c4ccoc4)OC3=O)[C@H]1CCC[C@]21CO1 [CAPITATIN] | 31 | – |
| CC(=O)OC[C@@]12C(=O)[C@H]3OC(=O)[C@@](C[C@H](OC(C)=O)c4ccoc4)(C1CCC[C@]21CO1)[C@@H]3C (stereo partly specified) | 6.9 | 230 |
